# Source: patent US20260091020A1, “TREATMENT OF ACUTE CANNABINOID OVERDOSE” (Anebulo Pharmaceuticals, Inc., priority 2022, published 2026)
# Entries after “also recorded” stand apart in the source; their conditions may differ.
# Assays:
# [1] = tested on: central nervous system effects of THC; assay: Phase 2 randomized, double-blind, placebo-controlled THC challenge study, PD endpoints (10.5 mg THC + 50 or 100 mg Compound 1); assay type: in vivo, human; settings: for Proportion of subjects reporting feeling high: score of at least 20/100 on VAS feeling high scale
# [2] = tested on: central nervous system effects of THC; assay: THC challenge PD, 10.5 mg THC + 30 mg Compound 1 (Example 3); assay type: in vivo, human; settings: THC (10.5 mg) + Compound 1 (30 mg)
# Description: Following the general methods of Example 1, the study design was adjusted such that groups received either (a) THC (10.5 mg)+placebo or (b) THC (10.5 mg)+Compound 1 (30 mg). Pharmacodynamic properties were then measured for Compound 1.
# [3] = 10.5 mg THC + 50 or 100 mg ANEB-001, p<0.05, unpaired t-test
# [4] = 10.5 mg THC + 50 or 100 mg Compound 1 vs THC alone
# [5] = 10.5 mg THC + 50 or 100 mg Compound 1 vs THC alone, not statistically significant overall
# [6] = 10.5 mg THC + 50 or 100 mg Compound 1 vs THC alone, overall p<0.01
smiles,measurement,setting,value
"CC(C)(C)NC(=O)N1CC(O[C@H](c2ccc(Cl)cc2)c2ccccc2C(F)(F)F)C1 [Compound 1, (R)—N-(tert-butyl)-3-((4-chlorophenyl)(2-(trifluoromethyl)phenyl)methoxy)azetidine-1-carboxamide]",Proportion of subjects reporting feeling high,[1]; 10.5 mg THC + 50 mg Compound 1,10%
same,Responder Rate for Reduction in Feeling High,"[1]; 10.5 mg THC + 50 mg or 100 mg Compound 1, p<0.01 vs THC alone",60%
same,Proportion of subjects reporting feeling high,[1]; 10.5 mg THC + 100 mg Compound 1,30%
same,Maximum change from baseline in body sway,[1]; [3],significant reduction in the maximum change from baseline for body sway
same,Maximum change from baseline in heart rate,[1]; [3],significant reduction in the maximum change from baseline for heart rate
same,VAS calmness,[1]; [4],no overall significant difference between the treatment groups
same,VAS internal perception,[1]; [4],no significant differences between treatments
same,VAS mood,[1]; [4],no significant differences between treatments
same,Heart rate,[1]; [5],trend towards normalization of heart rate; also recorded: trend to normalization of heart rate
same,THC-induced body sway,[1]; [5],trend towards reduced body sway; also recorded: trended to improvement
same,"VAS feeling high, time course","[1]; 10.5 mg THC + 50 or 100 mg Compound 1 vs THC alone, overall p<0.0001",highly significant reduction in feeling high; also recorded: Highly significant and sustained improvement
same,VAS alertness,[1]; [6],significantly inhibited the reduction in alertness; also recorded: significant improvement in alertness
same,VAS external perception,[1]; [6],significantly inhibited the change in perception; also recorded: Significant improvement at both dose levels
same,"Body sway, VAS alertness and VAS feeling high vs. placebo",[2],"improvements in metrics such as body sway, VAS alertness, and VAS feeling high"
